In US8530665B2 (Eli Lilly and Company, priority 2010, dated 2013) one finds IC50 data, which are given here for 1 compound.

In test [1] the test system is FGF9 induced ERK phosphorylation in Human RT112 bladder carcinoma cells. Kind of test: FGF9 induced p-ERK with BSA in RT112 cells. The settings on record: RT-112, read-out: IC50 FGF9 induced p-ERK.
Description: FGF9 Induced p-ERK with BSA
This yielded a 10 point dose-response curve ranging from 10-0.005 μM in 1% DMSO. The incubation is continued for 1 hour at 37° C. […] Cells are fixed by the addition of 30 μL of a 25% formaldehyde solution in phosphate buffered saline (PBS) (3.7% formaldehyde final concentration), and incubated 30 minutes at RT. Cells are washed 3× with PBS, followed by the addition of 100 μL of cold methanol and incubated for 30 minutes at −20° C. The methanol is removed and the cells are treated with PBS containing 0.1% TRITON® X-100(PBST), washed 3× with PBS, and incubated 15 minutes at RT.
Test [2] relates to FGF receptor 1 (bFGF induced ERK phosphorylation in HUVEC). The test can be described thus: AlphaScreen SureFire Detection of ERK phosphorylation (Thr202/Tyr204) in HUVEC. The settings on record: Homo sapiens, read-out: IC50 b-FGF induced ERK phosphorylation (Thr202/Tyr204).
Description: AlphaScreen SureFire Detection of ERK Phosphorylation (Thr202/Tyr204) in Human Umbilical Vein Endothelial Cells (HUVEC)
The effect of compound on the inhibition of FGF receptor 1 is measured by monitoring the phosphorylation of ERK (pERK) in response to basic-Fibroblast growth factor (b-FGF) stimulation in Human Umbilical Endothelial cells (HUVEC). […] This is a homogeneous assay format utilizing the immuno-sandwich capture of the phosphorylated analyte followed by detection using antibody-coated ALPHASCREEN® beads (Perkin Elmer) to generate an amplified signal.
For the assay, cells are harvested by standard procedures and then counted. […] Plates are incubated overnight at 37° C., 5% CO2.
On the day of the assay, cells are serum starved in 100 μL EBM (endothelial cell basal) medium containing 1.5% FBS and 20 mg/mL BSA for 3 hours at 37° C., 5% CO2, then treated with 20 μM of 3× serially diluted compound in starvation medium for 1 hour at 37° C. This yielded a 10 point concentration-response curve ranging from 10-0.005 μM in 1% DMSO. After 1 hour compound treatment, cells are stimulated with 50 μL b-FGF (Sigma, F0291, final b-FGF concentration 50 ng/mL) at 37° C. for 15 minutes. In the wells containing cells and 50 μL stimulator b-FGF yields MAX signal, and cells with 10 μM positive control compound and 50 μL stimulator b-FGF as MIN. […]

Consider `C[C@@H](Oc1ccc2[nH]nc(/C=C/c3cnn(CCO)c3)c2c1)c1c(Cl)cncc1Cl` [Preparation 10, (R)-(E)-2-(4-(2-(5-(1-(3,5-Dichloropyridin-4-yl)ethoxy)-1H-indazol-3-yl)vinyl)-1H-pyrazol-1-yl)ethanol], for which the IC50 came out at 0.4 nM in test [1] and 0.6 nM in test [2].
